In assay [1] the test system is Jurkat. Kind of assay: Cytotoxicity against human Jurkat cells at 20 ug/ml. The class given is functional, cell-based.
The test system of assay [2] is KB. Kind of assay: Cytotoxicity against human KB cells. The class given is functional, cell-based.

What is called IC50 is the concentration at which inhibition is half-maximal. Read a high IC50 as weaker potency in that assay.

Converted amounts (≈) assume the structure as drawn. The source made the active and inactive calls. No cut-off for these calls is given here.

On to `CC[C@H]1C[C@H]([C@@H](C)C2[C@@H](O)C[C@H]3C4=CC[C@H]5C[C@@H](O[C@@H]6O[C@H](CO)[C@@H](O)[C@H](O)[C@H]6O[C@@H]6O[C@H](CO)[C@@H](O)[C@H](O)[C@H]6O)CC[C@]5(C)[C@H]4CC[C@]23C)O[C@]1(C)CO[C@@H]1O[C@H](CO)[C@@H](O)[C@H](O)[C@H]1O[C@@H]1O[C@H](CO)[C@@H](O)[C@H](O)[C@H]1O` (stereo partly specified), for which the result in assay [1] was inactive.
Regarding `CC[C@H]1[C@H](O)[C@H]([C@@H](C)[C@@]2(O)[C@@H](O)C[C@H]3C4=CC[C@H]5C[C@@H](O[C@@H]6O[C@H](COC(C)=O)[C@@H](O)[C@H](O)[C@H]6O)CC[C@]5(C)[C@H]4CC[C@@]32C)O[C@]1(C)COC(C)=O`, the outcome in assay [1] was inactive.
`CC[C@H]1[C@H](O)[C@H]([C@@H](CO)[C@@]2(O)[C@@H](O)C[C@H]3C4=CC[C@H]5C[C@@H](O)CC[C@]5(C)[C@H]4CC[C@@]32C)O[C@]1(C)CO` [AJUGASALICIGENIN]: the result in assay [1] was inactive. Further, in assay [2], the half-maximal inhibitory concentration (IC50) stood at 1 µg/mL (≈ 1.97 µM).
In the same order, the values of `CC[C@H]1[C@H](O)[C@H]([C@@H](CO)[C@@]2(O)[C@@H](O)C[C@H]3C4=CC[C@H]5C[C@@H](O[C@@H]6O[C@H](CO)[C@@H](O)[C@H](O)[C@H]6O)CC[C@]5(C)[C@H]4CC[C@@]32C)O[C@]1(C)CO` [AJUGASALICIOSIDE F] are “inactive” and 13 µg/mL (≈ 19.4 µM).
